Where two headings read alike, the source gives them in different places.
Legend:
[1] = Body weight of S180 tumor-bearing mice
Method: (§1) Xenografts cultured S180 tumor cells were implanted subcutaneously into the flank region of mice and tumors were allowed to grow to the desired average size of 100 mg. The mice were randomized into control and treatment groups with 10 mice per group. The control group was injected with the vehicle used to dissolve the drug. […] Injections were I.V. via the tailvein.
(§2) The test group inoculated tumor cells […] in mice armpit, administration and observation of seven days.

[2] = system: Human pancreatic cancer cell line Panc-1; assay: In vitro anti-cancer cell experiment (MTT), pancreatic cancer Panc-1; type: cell-based
Method: (§3) Cell lines: Human pancreatic cancer cell line Panc-1, human colorectal cancer cell line HT29, human lung cancer cell line NCI-H460 and human breast cancer cell line MCF7; the medium: s DMEM (Gibco BRL), containing 10% fetal calf serum (Gibco BRL) and 2 mM L-glutamine (Gibco BRL).
(§4) The samples were dissolved in dimethyl sulfoxide (DMSO, Sigma, United States) and medium was added to the final concentration of 0.5%. cyclophosphamide was as positive control (CTX, purity>96%).
(§5) Method: cells were digested with trypsin and dispersed into single cells in the medium containing penicillin (25 U/ml) and streptomycin (25 μg/ml). The cells were seeded in 96-well culture plates (Corning Incorporated), at 37° C., with 5% CO2 present for 24 hours. The culture medium was removed, 1-100 μm test compounds were added, cultured for 48 hours. Culture medium was removed and […] (MTT, USA Sigma products) was added. The result was assayed by SK601-based microplate reader (Japan Seikagaku company's products), 570 nm/630 nm optical density (OD). Cell viability determined by the formula: (Experimental group OD/control OD)×100%; CDDP and the positive control subjects treated in the same material simultaneously.

[3] = system: human colorectal cancer cell line HT29; assay: In vitro anti-cancer cell experiment (MTT), colorectal cancer HT29; type: cell-based
Method: as §3, §4, §5

mice sarcoma S180 = assay: Inhibition of the sarcoma growth S180 in mice; type: in vivo; conditions: for inhibition compared with positive control cyclophosphamide / inhibition rate compared with positive control 5-FU: by tumor weight, seven days; for anti-tumor efficacy in vivo: iv
Method: Tumor strains: mice sarcoma S180 for ascites passaged from Beijing Academy of Military Medical Institute of Pharmacology.
as §1, §2

[4] = system: human lung cancer cell line NCI-H460; assay: In vitro anti-cancer cell experiment (MTT), lung cancer NCI-H460; type: cell-based
Method: as §3, §4, §5

[5] = system: human breast cancer cell line MCF7; assay: In vitro anti-cancer cell experiment (MTT), breast cancer MCF7; type: cell-based
Method: as §3, §4, §5

[6] = Panc-1 cells, 48 hours, MTT, read-out: IC50 Pancreatic cancer Panc-1
[7] = Panc-1 cells, 48 hours, MTT, value (95% confidence limits), read-out: IC50 and 95% confidence limits, anti-proliferative effect on Panc-1
[8] = HT-29, HT29 cells, 48 hours, MTT, value (95% confidence limits), read-out: IC50 and 95% confidence limit, anti-proliferative effect on HT29
[9] = HT-29 cells, 48 hours, MTT, read-out: IC50 Colorectal cancer HT-29
[10] = NCI-H460 cells, 48 hours, MTT, read-out: IC50 Lung cancer NCI-H460
[11] = NCI-H460 cells, 48 hours, MTT, value (95% confidence limits), unit given only for CTX, read-out: IC50 and 95% confidence limits, inhibitory effect on lung cancer NCI-H460 cells
[12] = MCF7 cells, 48 hours, MTT, read-out: IC50 Breast cancer MCF7
[13] = MCF7 cells, 48 hours, MTT, value (95% confidence limits), unit given only for CTX, read-out: IC50 with 95% confidence limits, inhibitory effect on breast cancer MCF7 cells
[14] = MCF7, 48 h, read-out: IC50 with 95% confidence limits, inhibitory effect on breast cancer MCF7 cells

SMILES | body Weight/g After ad. ([1]; mouse, in vivo, iv) | body Weight/g Before ad. ([1]; mouse, in vivo, iv) | IC50 [2, 6] | IC50 [2, 7] | IC50 [3, 8] | IC50 [3, 9] | inhibition compared with positive control cyclophosphamide (mice sarcoma S180) | inhibition rate compared with positive control 5-FU (mice sarcoma S180) | anti-tumor efficacy in vivo (mice sarcoma S180) | IC50 [4, 10] | IC50 [4, 11] | IC50 [5, 12] | IC50 [5, 13] | further results
CC12CC3CC(C)(C1)CC(N)(C3)C2 [Compound 3, Memantine] | 28.98 ± 1.74 g | 21.31 ± 1.53 g | 53 µM | 53 µg/mL | 13.1 µg/mL | 13.1 µM | significantly better than the positive control group of cyclophosphamide | better than the positive control group, 5-FU | statistically significant | 60.5 µM | 60.5 µg/mL | 34.3 µM | 34.3 µg/mL | –
COc1ccc(-c2ccc3cc(C(=O)O)ccc3c2)cc1C12CC3CC(CC(C3)C1)C2 [Compound 5, Adapalene] | 20.80 ± 3.61 g | 20.27 ± 1.80 g | 2.17 µM | 2.17 µg/mL | 0.85 µg/mL | 0.85 µM | significantly better than the positive control group of cyclophosphamide | better than the positive control group, 5-FU | statistically significant | 2.81 µM | 2.81 µg/mL | – | – | –
CC(N)C12CC3CC(CC(C3)C1)C2 (centres unmarked) [Compound 2, Rimantadine] | 26.02 ± 3.69 g | 19.35 ± 0.95 g | 2.42 µM | 2.42 µg/mL | 3.92 µg/mL | 3.92 µM | significantly better than the positive control group of cyclophosphamide | better than the positive control group, 5-FU | statistically significant | 22 µM | 22 µg/mL | 2.73 µM | 2.73 µg/mL | –
CN(C)CCOCC(=O)NC12CC3CC(CC(C3)C1)C2 [Compound 4, Tromantadine] | 28.64 ± 4.13 g | 21.03 ± 0.29 g | 10 µM | 10 µg/mL | 10.2 µg/mL | 10.2 µM | – | better than the positive control group, 5-FU | statistically significant | 8.52 µM | 8.52 µg/mL | 67.5 µM | 67.5 µg/mL | –
O=c1[nH]cc(F)c(=O)[nH]1 [Compound 5-FU, 5-fluorouracil] | 29.16 ± 2.50 g | 21.61 ± 1.56 g | – | – | – | – | – | – | – | – | – | – | – | –
NC12CC3CC(CC(C3)C1)C2 [Compound 1, Amantadine] | 27.93 ± 3.37 g | 21.41 ± 2.52 g | 51.3 µM | 51.3 µg/mL | 18.8 µg/mL | 18.8 µM | – | – | statistically significant | 5.18 µM | 5.18 µg/mL | 6.18 µM | – | IC50 [5, 14]: 6.18 µg/mL
O=C1C2CC3CC1CC(O)(C3)C2 [Compound 6, Idramantone] | 26.30 ± 3.62 g | 19.92 ± 1.47 g | 53.5 µM | 53.5 µg/mL | – | – | – | – | statistically significant | – | – | – | – | –
O=P1(N(CCCl)CCCl)NCCCO1 (centres unmarked) [CTX, cyclophosphamide] | – | – | – | – | – | – | – | – | – | – | – | – | – | body Weight/g After ad. ([1]; after administration, iv, seven days, X ± SD): 28.22 ± 2.46 g; body Weight/g Before ad. ([1]; before administration (baseline), iv groups, X ± SD): 22.45 ± 0.79 g; IC50 ([2]; PANC-1, 48 h, read-out: IC50 Pancreatic cancer Panc-1): 2.23 µM; IC50 ([2]; PANC-1, 48 h, read-out: IC50 and 95% confidence limits, anti-proliferative effect on Panc-1): 2.23 µg/mL; IC50 ([3]; HT-29, 48 h, read-out: IC50 Colorectal cancer HT-29): 2.26 µM; IC50 ([3]; HT-29, 48 h, read-out: IC50 and 95% confidence limit, anti-proliferative effect on HT29): 2.26 µg/mL; IC50 ([4]; NCI-H460, 48 h, read-out: IC50 Lung cancer NCI-H460): 4.3 µM; IC50 ([4]; NCI-H460, 48 h, read-out: IC50 and 95% confidence limits, inhibitory effect on lung cancer NCI-H460 cells): 4.3 µg/mL; IC50 ([5]; MCF7, 48 h, read-out: IC50 Breast cancer MCF7): 0.92 µM; IC50 [5, 14]: 0.92 µg/mL

Source: patent US20130072553A1, “DRUGS, DERIVATIVES AND ANALOGS CONTAINING ADAMANTANE STRUCTURES OF NEW INDICATION APPLICATIONS OF ANTI-TUMOR” (priority 2009, published 2013)
